Results published in patent US11944688B2, “Biologically active compounds” (SUTURA THERAPEUTICS LTD, priority 2015, dated 2024).
Positions of bridges follow the written chain, without caps; N, C: chain ends. Non-standard residues stand in square brackets, D forms with d. No end group written: not given here. {FITC} = fluorescein isothiocyanate label; S5 = C=CCCC[C@](C)(N)C(=O)O; {NH2} = amine group

Key:
HEK293T cells = experiment: Uptake into HEK293T cells by flow cytometry; format: cell-based, human; conditions: 4 hours
Protocol: FIG. 11 is the analysis of PMO uptake into HEK293T cells by flow cytometry. Cells were incubated without PMO or with 1 μM PMO, 1 μM PMO-C8M or 1 μM PMO-CP8M-NC (all fluorescein-labelled) at 37° C. for 4 hours. Fluorescence was measured after washing the cells with PBS.
HEK293T cells (Human embryonic kidney) were cultured in high glucose DMEM supplemented with 10% foetal calf serum (Sigma, UK) at 37° C. under an 8% CO2/92% air atmosphere.
(§1) U2OS cells were incubated with PMO or PMO-CP8M at increasing concentration (0.5 μM, 1.0 μM, 5.0 μM and 10 μM) with […] transfection reagent; H2K mdx mouse myoblasts were incubated with PMO or PMO-CP8M at 5.0 μM: HEK293T cells were incubated with CP8M (1.0 μM, 10 μM and 100 μM) and PMO, PMO-CP8M-NC, PMO-C8M at 1.0 μM. Levels of fluorescence was quantified at 494 nm to determine relative entry of respective compounds by microscopic or flow cytometry methodologies.
Uptake of fluorescently-labelled PMO was determined by flow cytometry using an Accuri C6 flow cytometer. PMO-transfected cells were released with trypsin, washed in PBS and kept on ice before analysis. Cell fluorescence in single live cells was determined using FlowJo software after appropriate gating. Untreated cells were used to establish gating settings for the determination of the % fluorescein-positive cells.

dystrophin [1] = experiment: Dystrophin immunostaining of heart muscle after intraperitoneal administration in mdx mice; format: in vivo
From the text: FIG. 18a is of mdx mice following a single intraperitoneal injection of 1 μmol/kg PMO-CP8M or 1 μmol/kg PMO. Muscles were recovered 7 days post administration;
FIG. 18b is following multiple intraperitoneal injections—total 7.6 μmol/kg PMO-CP8M or 7.6 μmol/kg PMO. Muscles were recovered 14 days post administration;
FIG. 18c is following multiple intraperitoneal injections—total 10.9 μmol/kg PMO-CP8M or 10.9 μmol/kg PMO;
FIG. 18d is a graphical representation of the number of cardiac muscle fibre being positive for an immuno-cytochemical staining for dystrophin following a multiple intraperitoneal injections—total 7.6 μmol/kg PMO-CP8M or 7.6 μmol/kg PMO; and
FIG. 18e is a graphical representation of the number of cardiac muscle fibre being positive for an immuno-cytochemical staining for dystrophin following multiple intraperitoneal injections—total 10.9 μmol/kg PMO-CP8M or 10.9 μmol/kg PMO. All dose are given in respect of the molarity of PMO [* denotes non fluorescent labelled PMO]. Hearts were recovered 14 days post administration;
Hearts were recovered 14 days post administration;
(§2) mdx mice, with access to chow and water ad libitum, were used in all experiments. All experiments were carried out in the Animal unit, School of Biological Science, University of Reading, Reading, UK according to procedures authorized by the UK Home Office. Mice were killed by CO2 inhalation or cervical dislocation at desired time points, and muscles and other tissues were snap-frozen in liquid nitrogen-cooled isopentane and stored at −80° C.
(§3) Intramuscular administrations: Tibialis anterior muscles of mdx mice were injected with either 2.2 nmol PMO or 2.2 nmol PMO-CP8M under isoflurane anaesthesia. […]
(§4) For skeletal muscle, heart and brain, […] cryosections were cut and dystrophin protein was detected using rabbit polyclonal antibody to dystrophin (ab15277; Abcam, Cambridge, UK). […] For liver, […] cryosections were dried and embedded in fluorescence-compatible mounting medium (Dako), and general fluorescence was assessed microscopically at 494 nm.

H2K mdx mouse myoblasts = experiment: Delivery of fluorescently labelled PMO into H2K mdx myoblasts, fluorescence microscopy; format: cell-based; conditions: 5 μM, without transfection reagent
Protocol: (§5) H2K mdx mouse myoblasts were cultured at 33° C. under a 8% CO2/92% air atmosphere in high-glucose DMEM supplemented with 20% foetal calf serum, 0.5% chicken embryo extract (PAA laboratories Ltd, Yeovil, UK), and 20 units/ml γ-interferon (Roche applied science, Penzberg, Germany). Cells were then treated with trypsin and plated at 8×10^4/cm^2 in 24-well plates coated with 0.1 mg/ml ECM gel (Sigma). H2K mdx cells were transfected 24 h after seeding with treatment in a final volume of 0.2 ml of normal growth media. Following 4 hours of transfection, the PMO or PMO-SAP was removed and replaced with DMEM supplemented with 5% horse serum. Fluorescence and RNA extraction was performed 48 hours post transfection.
as §1

[2] = system: exon 23 of the mouse dystrophin gene; experiment: Exon 23 exclusion in H2K mdx cells, nested RT-PCR; format: cell-based; conditions: 5 μM, RT-PCR 901 bp full length / 688 bp exon 23 excluded
Protocol: 24 hours after incubation with PMO-CP8M or PMO, H2K mdx cells were recovered and RNA isolated. The RNA was reversed transcribed and an amplification between exon 20 and 26 of the mouse dystrophin gene, followed by a nested amplification between exon 20 and 26 was performed to yield a full length product of 901 bp fragment if exon 23 is present or 688 bp fragment if exon 23 is excluded;
as §5
Total RNA was isolated from H2K mdx mouse myoblasts cells (RNeasy, Qiagen, UK). […]

U2OS cells = experiment: Delivery of fluorescently labelled PMO into U2OS cells, fluorescence microscopy; format: cell-based, human; conditions: 0.5-10 μM, 4 hours, without transfection reagent
Protocol: The biologically active compound was a PMO with a sequence:
(an antisense reagent targeted to exon 23 of the mouse dystrophin gene, that causes the exclusion of exon 23 during mRNA splicing maturation); the bi-functional linker was a PEGylated SMCC; and the StaP was RKF-S5-RLF-S5 (SEQ ID NO: 57). This configuration of DCCPM is depicted as PMO-CP8M in the subsequent figs; unconjugated PMO acts as a control. All compounds were added to U2OS cells maintained in culture, without transfection reagent for 4 hours;
U2OS cells (Human osteosarcoma) were cultured in high glucose DMEM supplemented with 10% foetal calf serum (Sigma, UK) at 37° C. under an 8% CO2/92% air atmosphere.
as §1

dystrophin [3] = experiment: Dystrophin immunostaining of Tibialis anterior after intramuscular injection in mdx mice; format: in vivo; conditions: single intramuscular 2.2 nmol, 7 days post-administration, n=4
Protocol: Muscles were recovered 7 day post administration;
All dose are given in respect of the molarity of PMO;
as §2, §3, §4

dystrophin [4] = experiment: Dystrophin immunostaining of cerebellum after systemic administration in mdx mice; format: in vivo; conditions: single 1 μmol/kg intravenous, without fluorescent label, 7 days, n=1 per group
Protocol: All dose are given in respect of the molarity of PMO [* denotes non fluorescent labelled PMO]. Cerebella were recovered 7 days post administration; and
as §2, §3, §4

CP8M: CPP sequence RKF-S5-RLF-S5 (SEQ ID NO: 57) with PEGylated SMCC as BFL (RKF[S5]RLF[S5]-NH2; staple 4-8; also: PEGylated SMCC as BFL, attachment not given here)
cellular entry of FITC-labelled CP8M charge variants (HEK293T cells; HEK293T, 1.0, 10 and 100 μM, without transfection reagent): dose dependent increase

PMO: PMO 5′GGCCAAACCTCGGCTTACCTGAAAT3′ targeted to exon 23 of mouse dystrophin gene; 5′ amine, 3′ FITC label; unconjugated control (all phosphorodiamidate morpholino (PMO), 5' {NH2}, 3' {FITC})
cell entry of fluorescein-labelled PMO (HEK293T cells; HEK293T, 1 μM, 37° C.): refractory to cell entry
dystrophin-positive heart muscle fibres, 7.6 μmol/kg (dystrophin [1]; intraperitoneal total 7.6 μmol/kg over 4 days, without fluorescent label, 2 weeks post-administration, n=4, mean±SEM): 57±17 fibres
dystrophin-positive heart muscle fibres, 10.9 μmol/kg (dystrophin [1]; intraperitoneal total 10.9 μmol/kg over 2 days, n=4, mean±SEM): 33±8 fibres
dystrophin-positive heart muscle fibres, single low dose (dystrophin [1]; single intraperitoneal 1 μmol/kg, 7 days, n=1 per group): not
muscle cell entry (H2K mdx mouse myoblasts): refractory to muscle cell entry
exclusion of exon 23 from the dystrophin transcript [2]: lack of exon exclusion
fluorescence signal (cell entry) (U2OS cells): only a background fluorescence signal
percentage of dystrophin re-expression (dystrophin [3]): 762.25
dystrophin expression in Purkinje cells of cerebellum (dystrophin [4]): No dystrophin expression was observed
